In data set [1] the target is Cyclin-dependent kinase 14/Cyclin-Y (Homo sapiens) (UniProt O94921+Q8ND76). Description: Inhibition of CDK14/Cyclin Y (unknown origin) at 200 nM relative to control; values are per cent of control.
Data set [2] can be described thus: AUC(0 to 24 hrs) in Sprague-Dawley rat at 30 mg/kg, po. It is filed as ADME, organism-based. Conditions: in vivo.
The nature of data set [3]: Oral bioavailability in dog at 2 mg/kg. The settings on record: in vivo. It is filed as ADME, organism-based, Canis lupus familiaris.
Data set [4] in a line: AUC(0 to t) in dog at 0.2 mg/kg, iv. Format: ADME, organism-based, Canis lupus familiaris. Conditions: in vivo.
Data set [5] is described as follows: Metabolic stability in human liver microsomes assessed as intrinsic clearance. Format: ADME, Microsome. The settings on record: read-out: CLH. On the technique in general: Liver microsomes are vesicles of endoplasmic reticulum, rich in cytochrome P450 enzymes.
A short description of data set [6]: AUC(0 to t) in human HCC70 cells xenografted in female nu/nu mouse plasma at 1 mg/kg, po administered once daily. Format: ADME, organism-based. A general note: Xenograft models place foreign cells or tissue in a host animal.
Data set [7] in a line: Cmax in Sprague-Dawley rat at 100 mg/kg, po. Format: ADME, organism-based. Conditions: in vivo.
A short description of data set [8]: Metabolic stability in mouse liver microsomes assessed as intrinsic clearance. Format: ADME, Microsome. The settings on record: read-out: CLH.
The nature of data set [9]: Cmax in human OVCAR-3 cells xenografted in female Balb/c nude mouse plasma at 2 mg/kg, po administered once daily. It is filed as ADME, organism-based.
Data set [10] can be described thus: Cmax in Sprague-Dawley rat at 300 mg/kg, po. Format: ADME, organism-based. Conditions: in vivo.
A short description of data set [11]: AUC (0 to t) in human OVCAR-3 cells xenografted in female Balb/c nude mouse plasma at 20 mg/kg, po administered once daily. It is filed as ADME, organism-based.
Data set [12] concerns Mus musculus. The data set can be described thus: In vivo inhibition of CDK2 phosphorylation in human HCC70 cells xenografted in female Balb/c nude mouse administered once daily for 7 days. Format: functional, organism-based. Conditions: dose 2-10 mg/kg, time 7.0 day.
The nature of data set [13]: Half life in human OVCAR-3 cells xenografted in female Balb/c nude mouse plasma at 5 mg/kg, po administered once daily. Format: ADME, organism-based.
A short description of data set [14]: AUC(0 to 48 hrs) in Sprague-Dawley rat at 300 mg/kg, po. Format: ADME, organism-based. Conditions: in vivo.
A short description of data set [15]: Half life in human OVCAR-3 cells xenografted in female Balb/c nude mouse plasma at 20 mg/kg, po administered once daily. Format: ADME, organism-based.
The target of data set [16] is Cyclin-dependent kinase 7 (Homo sapiens) (UniProt P50613). The data set can be described thus: Inhibition of CDK7 (unknown origin) at 200 nM relative to control; values are per cent of control.
Data set [17] is described as follows: Half life in rat at 5 mg/kg, po. Conditions: in vivo. It is filed as ADME, organism-based.
In data set [18] the target is Cyclin-dependent kinase 4/cyclin D1 (Homo sapiens, UniProt P11802). Description: Inhibition of CDK4/CyclinD1 (unknown origin). It is filed as protein-complex assay.
For data set [19], the target named is Cyclin-Y/Cyclin-dependent kinase 16 (Homo sapiens, UniProt Q00536). Description: Inhibition of CDK16/CyclinY (unknown origin). It is filed as protein-complex assay.
In data set [20] the target is Homeodomain-interacting protein kinase 4 (Homo sapiens, UniProt Q8NE63). The data set can be described thus: Inhibition of HIPK4 (unknown origin).
A short description of data set [21]: Half life in female Balb/c nude mouse at 5 mg/kg, po. Format: ADME, organism-based. The settings on record: in vivo.
For data set [22], the target named is Cyclin-dependent kinase 7/ cyclin H (Homo sapiens, UniProt P50613). Description: Binding affinity to CDK7/CyclinH (unknown origin) assessed as dissociation constant by SPR assay. Format: protein-complex assay. (In general: Surface plasmon resonance follows binding to a sensor surface in real time, without labels.)
For data set [23], the system named is HCC70. Description: cells. The settings on record: Homo sapiens, HCC70, 72 h.
Description: Antiproliferative activity against human HCC70 cells assessed as inhibition of cell proliferation incubated for 72 hrs by celltiter-glo assay
A short description of data set [24]: AUC (0 to t) in human OVCAR-3 cells xenografted in female Balb/c nude mouse plasma at 2 mg/kg, po administered once daily. It is filed as ADME, organism-based.

The results in this text go back to ChEMBL document CHEMBL6092221, “Discovery of a Novel Macrocyclic Noncovalent CDK7 Inhibitor for Cancer Therapy” (J Med Chem, 2024).

pIC50, pKd: −log10 of the molar value.

Sequence of Cyclin-Y/Cyclin-dependent kinase 16 (Q00536 whole entry): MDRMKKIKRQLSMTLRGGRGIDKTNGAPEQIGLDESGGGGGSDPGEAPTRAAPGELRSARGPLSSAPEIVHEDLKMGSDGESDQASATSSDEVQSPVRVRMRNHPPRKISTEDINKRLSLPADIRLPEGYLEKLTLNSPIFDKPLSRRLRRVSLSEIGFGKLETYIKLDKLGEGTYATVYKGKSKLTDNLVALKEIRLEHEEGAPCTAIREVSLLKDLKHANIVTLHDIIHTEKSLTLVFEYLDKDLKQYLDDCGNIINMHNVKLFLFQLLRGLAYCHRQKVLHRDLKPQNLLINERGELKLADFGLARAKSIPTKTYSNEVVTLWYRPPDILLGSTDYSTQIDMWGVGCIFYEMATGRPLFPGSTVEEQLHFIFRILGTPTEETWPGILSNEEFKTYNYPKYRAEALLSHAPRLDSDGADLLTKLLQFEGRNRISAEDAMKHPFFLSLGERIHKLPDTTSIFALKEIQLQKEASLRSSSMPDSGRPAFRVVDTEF
Sequence of Cyclin-Y/Cyclin-dependent kinase 16 (Q8ND76 whole entry, further chain): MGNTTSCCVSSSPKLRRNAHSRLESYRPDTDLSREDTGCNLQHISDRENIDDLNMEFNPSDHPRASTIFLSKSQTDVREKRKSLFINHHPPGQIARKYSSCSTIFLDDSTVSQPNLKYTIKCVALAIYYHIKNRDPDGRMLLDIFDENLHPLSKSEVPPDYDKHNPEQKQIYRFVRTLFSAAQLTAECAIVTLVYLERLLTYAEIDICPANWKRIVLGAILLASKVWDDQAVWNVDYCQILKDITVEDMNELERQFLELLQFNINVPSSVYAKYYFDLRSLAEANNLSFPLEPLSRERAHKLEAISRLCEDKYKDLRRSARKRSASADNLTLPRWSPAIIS
Sequence of Cyclin-dependent kinase 7/ cyclin H (P51946 whole entry): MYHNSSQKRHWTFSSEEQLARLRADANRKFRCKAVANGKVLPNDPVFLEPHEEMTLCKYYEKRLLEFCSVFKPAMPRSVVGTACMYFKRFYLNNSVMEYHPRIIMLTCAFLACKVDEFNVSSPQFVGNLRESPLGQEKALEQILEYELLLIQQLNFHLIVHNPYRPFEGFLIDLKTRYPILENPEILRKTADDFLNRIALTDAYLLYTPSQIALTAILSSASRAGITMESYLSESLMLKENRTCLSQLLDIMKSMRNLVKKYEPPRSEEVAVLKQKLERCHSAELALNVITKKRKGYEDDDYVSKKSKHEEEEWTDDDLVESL
Sequence of Cyclin-dependent kinase 7/ cyclin H (P50613 whole entry): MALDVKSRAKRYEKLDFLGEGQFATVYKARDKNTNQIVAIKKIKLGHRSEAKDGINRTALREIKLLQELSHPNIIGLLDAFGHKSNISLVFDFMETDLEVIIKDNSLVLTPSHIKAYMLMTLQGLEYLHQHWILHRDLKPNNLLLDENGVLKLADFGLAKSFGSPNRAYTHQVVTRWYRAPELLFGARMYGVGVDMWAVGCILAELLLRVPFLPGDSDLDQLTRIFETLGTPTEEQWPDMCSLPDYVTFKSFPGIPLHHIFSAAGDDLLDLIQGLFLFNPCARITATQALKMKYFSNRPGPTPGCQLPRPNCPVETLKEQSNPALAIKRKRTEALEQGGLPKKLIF
Sequence of Homeodomain-interacting protein kinase 4 (Q8NE63 whole entry): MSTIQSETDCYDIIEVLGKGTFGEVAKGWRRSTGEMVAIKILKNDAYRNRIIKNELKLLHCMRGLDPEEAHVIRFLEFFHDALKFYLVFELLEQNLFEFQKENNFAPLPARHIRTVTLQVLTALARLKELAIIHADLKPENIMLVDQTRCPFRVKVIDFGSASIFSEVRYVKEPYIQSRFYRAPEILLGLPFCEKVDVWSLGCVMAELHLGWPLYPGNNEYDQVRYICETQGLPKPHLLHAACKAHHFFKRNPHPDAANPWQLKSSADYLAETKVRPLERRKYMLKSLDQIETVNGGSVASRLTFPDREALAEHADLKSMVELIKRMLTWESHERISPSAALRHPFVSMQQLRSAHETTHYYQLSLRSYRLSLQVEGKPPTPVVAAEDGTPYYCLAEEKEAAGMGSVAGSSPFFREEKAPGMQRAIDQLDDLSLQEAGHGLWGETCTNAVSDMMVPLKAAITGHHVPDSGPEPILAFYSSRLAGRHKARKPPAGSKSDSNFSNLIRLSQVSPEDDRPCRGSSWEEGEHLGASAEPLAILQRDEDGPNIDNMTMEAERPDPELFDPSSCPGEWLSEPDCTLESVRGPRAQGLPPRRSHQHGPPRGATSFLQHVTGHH
Sequence of Cyclin-dependent kinase 7 (Homo sapiens) (P50613 whole entry): as the sequence (P50613 whole entry) above
Sequence of Cyclin-dependent kinase 4/cyclin D1 (P11802 whole entry): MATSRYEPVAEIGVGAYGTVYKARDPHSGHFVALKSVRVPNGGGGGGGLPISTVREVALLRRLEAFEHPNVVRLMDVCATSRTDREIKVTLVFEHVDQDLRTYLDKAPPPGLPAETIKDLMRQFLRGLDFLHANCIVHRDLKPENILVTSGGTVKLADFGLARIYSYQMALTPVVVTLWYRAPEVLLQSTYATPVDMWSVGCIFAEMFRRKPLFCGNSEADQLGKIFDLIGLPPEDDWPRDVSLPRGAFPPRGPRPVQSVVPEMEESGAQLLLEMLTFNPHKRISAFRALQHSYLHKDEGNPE
Sequence of Cyclin-dependent kinase 4/cyclin D1 (P24385 whole entry, further chain): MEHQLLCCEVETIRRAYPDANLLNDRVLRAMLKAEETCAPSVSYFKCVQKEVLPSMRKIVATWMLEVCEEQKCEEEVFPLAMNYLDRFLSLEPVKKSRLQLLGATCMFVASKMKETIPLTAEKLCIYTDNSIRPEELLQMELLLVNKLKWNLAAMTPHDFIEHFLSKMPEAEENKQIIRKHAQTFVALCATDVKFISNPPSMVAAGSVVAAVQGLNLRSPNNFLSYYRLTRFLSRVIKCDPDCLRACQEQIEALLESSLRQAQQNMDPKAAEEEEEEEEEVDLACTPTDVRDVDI

The term residual activity denotes the signal under treatment as a percentage of the control signal. Low values mean a large loss of activity, high ones a small loss of activity. As usually defined, the AUC(0-t) is the area under the concentration-time curve up to a stated or last time point. The low end stands for low exposure, the high end for high exposure. The Cmax is the peak of the concentration-time curve. Broadly, the half-life is the time in which the quantity being followed falls by half. A high value points to slow decline. What is called pIC50 is the negative decadic logarithm of the IC50, by convention in mol/L. Usually pKd stands for the negative decadic logarithm of the Kd, by convention in mol/L. Regarding `CN1CC(F)(F)CCN(C)[C@H]2CC[C@@H](C2)Nc2ncc(C(F)(F)F)c(n2)-c2c[nH]c3c(P(C)(C)=O)c(ccc23)C1=O`, the residual activity came to 1.3% in data set [1] and 0.35% in data set [16]. Besides, the AUC(0-t) amounted to 3960 ng·h/mL in [2]; 3070 ng·h/mL in [4]; 84 ng·h/mL in data set [6]; 3940 ng·h/mL in data set [11]; 15300 ng·h/mL in data set [14]; 329 ng·h/mL in [24]. In addition, the bioavailability in data set [3] came out at 147%. In addition, the CLint scaled in data set [5] turned out to be 19.6 mL/min/kg; in [8] it was 84.3 mL/min/kg. Besides, the Cmax in data set [7] was 3830 ng/mL; in [9], 214 ng/mL; in data set [10] it was 3310 ng/mL. In data set [12], the Activity entry was “Dose-dependent-effect”. For the same molecule, the half-life in [13] was 2.8 h; in [15] it was 3.4 h; in data set [17] it was 1.4 h; in [21], 4.3 h. The pIC50 in data set [18] was 6.84; in data set [19], 8.55; in data set [20], 7.26; in [23], 7.61. In data set [22], the pKd is 9.74.
